Drawing on patent publication US9527832B2, “Substituted condensed pyrimidine compounds” (GRÜNENTHAL GMBH, priority 2013, dated 2016), this text covers melting point, inhibition and IC50 for 11 compounds.

Bounds are passed on as bounds.

One data set addresses T1, human PDE4B1 (Homo sapiens, UniProt Q07343).
T1 construct: host or cells: Sf9 cells
Description: cAMP HTRF assay to determine the activity of hPDE4B1. The format is biochemical. Conditions: for inhibition at 1 µM: Percentage inhibition of PDE4B at 1 μM test concentration; for IC50: dose response measurements with eight concentrations, reported as ranges, read-out: IC50. An outline of the steps:
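Sf9-expressed recombinant human PDE4B1 (4.8 U) in Tris-HCl/MgCl2/DTT/Tween 20 buffer pH 7.8, with cAMP at 40 nM final, 30 min at room temperature. Reaction stopped with IBMX 1 mM; remaining cAMP detected by HTRF (665/620 nm ratio). IC50 from eight-point dose-response, n=2.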
Background: In TR-FRET formats the signal depends on donor and acceptor labels being close together.

T1 sequence (Q07343 whole entry): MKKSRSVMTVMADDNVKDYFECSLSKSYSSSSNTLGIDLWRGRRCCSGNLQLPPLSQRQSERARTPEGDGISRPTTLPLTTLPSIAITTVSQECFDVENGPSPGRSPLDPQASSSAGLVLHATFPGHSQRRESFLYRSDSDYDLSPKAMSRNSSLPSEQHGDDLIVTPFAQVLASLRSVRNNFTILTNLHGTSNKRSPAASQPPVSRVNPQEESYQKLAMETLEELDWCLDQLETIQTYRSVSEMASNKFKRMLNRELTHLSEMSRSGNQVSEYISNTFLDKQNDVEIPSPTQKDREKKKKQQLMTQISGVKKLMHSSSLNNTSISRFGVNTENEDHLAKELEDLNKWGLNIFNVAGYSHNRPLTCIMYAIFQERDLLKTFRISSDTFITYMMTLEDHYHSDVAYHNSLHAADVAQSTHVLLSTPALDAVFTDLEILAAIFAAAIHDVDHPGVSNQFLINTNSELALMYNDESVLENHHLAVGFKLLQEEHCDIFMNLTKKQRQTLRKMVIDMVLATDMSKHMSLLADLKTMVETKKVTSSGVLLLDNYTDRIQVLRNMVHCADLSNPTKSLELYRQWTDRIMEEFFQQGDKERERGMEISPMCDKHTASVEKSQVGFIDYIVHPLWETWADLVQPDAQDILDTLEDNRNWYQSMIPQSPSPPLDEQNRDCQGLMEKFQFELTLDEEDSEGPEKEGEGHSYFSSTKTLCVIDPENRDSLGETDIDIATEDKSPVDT

As a reminder, the melting point is the temperature of the solid-liquid transition. The compound `CN(C)C(=O)COc1cccc2c1CCN2c1nc(-c2cccc(F)c2)nc2c1CS(=O)(=O)C2` [Compound No. 2-4, 2-((1-(2-(3-Fluorophenyl)-6,6-dioxo-5,7-dihydro-thieno[3,4-d]pyrimidin-4-yl)-2,3-dihydro-1H-indol-4-yl)oxy)-N,N-dimethyl-acetamide] returned a melting point of 237 to 245 °C.

The compound `CN(C)C(=O)COc1cccc2c1CCN2c1nc(-c2ccc(F)c(F)c2)nc2c1CS(=O)(=O)C2` [Compound No. 2-12, 2-((1-(2-(3,4-Difluoro-phenyl)-6,6-dioxo-5,7-dihydro-thieno[3,4-d]pyrimidin-4-yl)-2,3-dihydro-1H-indol-4-yl)oxy)-N,N-dimethyl-acetamide] displayed a melting point of 212 to 217 °C.

`CN(C)C(=O)COc1cccc2c1CCN2c1nc(-c2cccc(Cl)c2)nc2c1CS(=O)(=O)C2` [Compound No. 2-6, 2-((1-(2-(3-Chlorophenyl)-6,6-dioxo-5,7-dihydro-thieno[3,4-d]pyrimidin-4-yl)-2,3-dihydro-1H-indol-4-yl)oxy)-N,N-dimethyl-acetamide]: the melting point fell in the range of 222 to 226 °C.

Broadly, the inhibition is the change of the read-out against control, counted positive when it falls. One may read the IC50 as the midpoint of a concentration-inhibition curve. With `COc1ccc(-c2nc3c(c(N4CCc5cc(CC(=O)O)ccc54)n2)CS(=O)(=O)C3)cc1Cl` [Compound No. 1-11, 2-(1-(2-(3-Chloro-4-methoxy-phenyl)-6,6-dioxo-5,7-dihydro-thieno[3,4-d]pyrimidin-4-yl)-2,3-dihydro-1H-indol-5-yl)acetic acid], the melting point is 245 to 247 °C. Also, on human PDE4B1, the inhibition at 1 µM was 100% and the IC50 was less than 100 nM.

Regarding `COc1ccc(-c2nc3c(c(N4CCc5c(OCC(=O)N(C)C)cccc54)n2)CS(=O)(=O)C3)cc1` [Compound No. 2-2, 2-((1-(2-(4-Methoxyphenyl)-6,6-dioxo-5,7-dihydro-thieno[3,4-d]pyrimidin-4-yl)-2,3-dihydro-1H-indol-4-yl)oxy)-N,N-dimethyl-acetamide], the melting point was 225 to 232 °C.

`O=C(COc1ccc2c(c1)N(c1nc(-c3ccc(Cl)s3)nc3c1CCC3)CC2)N1CCCC1` [Compound No. 2-142, 2-((1-(2-(5-Chlorothiophen-2-yl)-6,7-dihydro-5H-cyclopenta[d]pyrimidin-4-yl)indolin-6-yl)oxy)-1-(pyrrolidin-1-yl)ethanone] had a melting point of 209 to 212 °C. On human PDE4B1, the inhibition at 1 µM was determined as 61% and the half-maximal inhibitory concentration (IC50) is 100 to 1000 nM.

The compound `COc1ccc(-c2nc3c(c(N4CCc5c(OCC(=O)N(C)C)cccc54)n2)CS(=O)(=O)C3)cc1F` [Compound No. 2-10, 2-((1-(2-(3-Fluoro-4-methoxy-phenyl)-6,6-dioxo-5,7-dihydro-thieno[3,4-d]pyrimidin-4-yl)-2,3-dihydro-1H-indol-4-yl)oxy)-N,N-dimethyl-acetamide] came in with a melting point of 231 to 233 °C.

Take `COc1ccc(-c2nc3c(c(N4CCc5cc(CC(=O)O)ccc54)n2)CS(=O)(=O)C3)cc1` [Compound No. 1-12, 2-(1-(2-(4-Methoxyphenyl)-6,6-dioxo-5,7-dihydro-thieno[3,4-d]pyrimidin-4-yl)-2,3-dihydro-1H-indol-5-yl)acetic acid]: the melting point was in the range of 239 to 243 °C. On human PDE4B1, the inhibition at 1 µM turned out to be 108% and the IC50 was less than 100 nM.

Compound `COc1ccc(-c2nc3c(c(N4CCc5cc(CC(=O)O)ccc54)n2)CS(=O)(=O)C3)cc1F` [Compound No. 1-10, 2-(1-(2-(3-Fluoro-4-methoxy-phenyl)-6,6-dioxo-5,7-dihydro-thieno[3,4-d]pyrimidin-4-yl)-2,3-dihydro-1H-indol-5-yl)acetic acid] gave a melting point of 192 to 195 °C. On human PDE4B1, the inhibition at 1 µM was 96% and the IC50 is less than 100 nM.

Consider `CN(C)C(=O)COc1ccc2c(c1)N(c1nc(-c3ccc(C#N)s3)nc3c1CS(=O)(=O)C3)CC2` [Compound No. 2-83, 2-((1-(2-(5-Cyanothiophen-2-yl)-6,6-dioxido-5,7-dihydrothieno[3,4-d]pyrimidin-4-yl)indolin-6-yl)oxy)-N,N-dimethylacetamide], for which, on human PDE4B1, the inhibition at 1 µM was determined as 97% and the IC50 was less than 100 nM.

On to `COc1ccc(-c2nc3c(c(N4CCc5ccc(OCC(=O)N(C)C)cc54)n2)C[S+]([O-])C3)cn1` (centres unmarked) [Compound No. 2-139, 2-((1-(2-(6-Methoxypyridin-3-yl)-6-oxido-5,7-dihydrothieno[3,4-d]pyrimidin-4-yl)indolin-6-yl)oxy)-N,N-dimethylacetamide], for which the IC50 on human PDE4B1 was less than 100 nM.
